Values after ≈ are worked out from the molar mass of the structure shown.
Key:
[1] = system: Human lung cancer NCI-H460 cells; assay: In vitro cell proliferation suppressive activity (MTT method); assay type: cell-based; conditions: 3 days culture; for IC50: Homo sapiens, 72 h, read-out: IC50 (concentration at which 50% of the cell proliferation was suppressed), NCI-H460 cells
Experimental: (§1) Proliferation suppressive activities of ellagitannin against various kinds of cancer cell lines were measured in the following manner.
(§2) Each of the following cancer cell lines was placed in a 96-well plate at 5×10^3 cell/100 μL per well using a DMEM medium (product of NISSUI PHARMACEUTICAL CO., LTD.) containing FBS (product of Sigma-Aldrich Co.) in an amount of 10 liquid amount %, and was cultured for 24 hours at 37° C. in an atmosphere of 5% CO2, whereby the cells were allowed to adhere to the plate completely.
(§3) Each of the following ellagitannins was added thereto so as to have final concentrations of 100 μg/mL, 50 μg/mL, 25 μg/mL, 12.5 μg/mL, 6.25 μg/mL, 3.13 μg/mL, 1.56 μg/mL, and 0.78 μg/mL, followed by culturing for 3 days at 37° C. in an atomosphere of 5% CO2.
(§4) In addition, as comparative controls, the 96-well plates to which the cancer cells had been allowed to adhere were cultured for 3 days at 37° C. in an atomosphere of 5% CO2 without addition of ellagitannin.
(§5) After the culturing for 3 days, cell proliferation was measured using the MTT method. The MTT method was performed as follows. Specifically, 10 μL of an MTT solution (a PBS solution containing MTT (3-(4,5-dimethylthiazol-2-yl)-2,5-diphenyltetrazolium bromide) at a concentration of 5 mg/mL) was added to each well and cultured for 4 hours. The formed formazan products were dissolved by adding 100 μL of a 20% SDS solution to each well, and measured for absorbance at 570 nm using LABSYSTEMS MULTISCAN MS (product of DS Pharma Biomedical Co., Ltd.).
(§6) The absorbance of the system involving the addition of the ellagitannin was indicated as “A” and the absorbance of the system of the comparative controls was indicated as “B”, and cell proliferation inhibitory rate (%) was calculated from the following formula (1).
(§7) Cell proliferation inhibitory rate(%)={(B−A)/B}×100 Formula (1)
(§8) Next, the cell proliferation inhibitory rate was used to determine a concentration at which 50% of the cell proliferation was suppressed (IC50 value).

[2] = system: Human osteosarcoma SJSA-1 cells; assay: as above; assay type: cell-based; conditions: 3 days culture; for IC50: Homo sapiens, 72 h, read-out: IC50 (concentration at which 50% of the cell proliferation was suppressed), SJSA-1 cells
Experimental: as §1, §2, §3, §4, §5, §6, §7, §8

[3] = system: human osteosarcoma SJSA-1 cells; assay: Antitumor activity-2 in cancer cell-transplanted mice (Test Example 2-2); assay type: in vivo, mouse; conditions: nude mice transplanted with SJSA-1 cells; 12.5, 6.25 or 3.13 mg/kg, tail vein, twice a week; FIG. 3
Source text: Eugeniin (product of […] Science Co., Ltd.) was used as the ellagitannin and was studied for antitumor activity in the following manner.

[4] = system: human lung cancer NCI-H460 cells; assay: Antitumor activity-1 in cancer cell-transplanted mice (Test Example 2-1); assay type: in vivo, mouse; conditions: nude mice transplanted with NCI-H460 cells; 12.5 mg/kg, tail vein, twice a week from one week after transplantation; FIG. 2
Experimental: (§9) The antitumor effect of the geraniin was evaluated by observing the proliferation state of the tumor after the transplantation of the cells. Specifically, a longer diameter and a shorter diameter of each tumor were meatured with a caliper, and a tumor volume was measured from the following formula (2). Its average and standard deviation were obtained to determine the effect in the geraniin-administration groups in comparison to the comparative control groups.
(§10) Tumore volume=longer diameter×(shorter diameter)^2÷2 Formula (2)

[5] = system: human osteosarcoma SJSA-1 cells; assay: as above; assay type: in vivo, mouse; conditions: nude mice transplanted with SJSA-1 cells; 12.5 mg/kg, tail vein, twice a week from one week after transplantation; FIG. 1
Experimental: as §9, §10

Row | IC50 [1] | IC50 [2] | IC50 (concentration at which 50% of the cell proliferation was suppressed), NCI-H460 cells [1] | IC50 (concentration at which 50% of the cell proliferation was suppressed), SJSA-1 cells [2] | Compound | tumor volume compared with the comparative control group (Saline) [3] | tumor volume compared with the comparative control group (Saline) [4] | tumor volume compared with the comparative control group (Saline) [5]
1 | 11 mg/L (≈ 14 µM) | 41 mg/L (≈ 52.1 µM) | – | – | O=C(OC1OC2COC(=O)c3cc(O)c(O)c(O)c3-c3c(cc(O)c(O)c3O)C(=O)OC2C(OC(=O)c2cc(O)c(O)c(O)c2)C1O)c1cc(O)c(O)c(O)c1 (stereo not drawn) [1,3-di-O-galloyl-4,6-O-hexahydroxydiphenoyl glucose] | – | – | –
2 | 5.6 mg/L (≈ 5.97 µM) | 18 mg/L (≈ 19.2 µM) | – | – | O=C(O[C@@H]1O[C@@H]2COC(=O)c3cc(O)c(O)c(O)c3-c3c(cc(O)c(O)c3O)C(=O)O[C@H]2[C@H](OC(=O)c2cc(O)c(O)c(O)c2)[C@H]1OC(=O)c1cc(O)c(O)c(O)c1)c1cc(O)c(O)c(O)c1 [Eugeniin, eugeniin] | significantly smaller | – | –
3 | 40 mg/L (≈ 42 µM) | 100 mg/L (≈ 105 µM) | – | – | O=C1O[C@H]2[C@@H]3OC(=O)c4cc(O)c(O)c(O)c4-c4c(cc(O)c(O)c4O)C(=O)OC[C@H]2O[C@@H](OC(=O)c2cc(O)c(O)c(O)c2)[C@@H]3OC(=O)c2cc(O)c(O)c3c2[C@@H]2C1=CC(=O)[C@](O)(O3)C2(O)O [Geraniin, geraniin] | – | significantly smaller | significantly smaller
4 | 33 mg/L (≈ 52 µM) | ≥ 110 mg/L | – | – | O=C(OC1OC2COC(=O)c3cc(O)c(O)c(O)c3-c3c(cc(O)c(O)c3O)C(=O)OC2C(O)C1O)c1cc(O)c(O)c(O)c1 (stereo not drawn) [Strictinin, strictinin] | – | – | –
5 | 32 mg/L (≈ 40.7 µM) | 46 mg/L (≈ 58.5 µM) | – | – | O=C(OC1C(O)OC2COC(=O)c3cc(O)c(O)c(O)c3-c3c(cc(O)c(O)c3O)C(=O)OC2C1OC(=O)c1cc(O)c(O)c(O)c1)c1cc(O)c(O)c(O)c1 (stereo not drawn) [Tellimagrandin I, tellimagrandin I] | – | – | –
6 | – | – | 35 mg/L | 61 mg/L | casuarictin | – | – | –

From patent US20150283159A1, “ANTICANCER AGENT, AND COMBINATION USE ANTICANCER AGENT” (Microbial Chemistry Research Foundation, priority 2012, published 2015)
